Assay results published in PubChem BioAssay (NCI).
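Briefly, cells in 96-well plates were exposed to five compound concentrations for 48 h, and endpoints were estimated by linear interpolation. GI50: concentration for 50% inhibition of growth. TGI: concentration producing complete growth inhibition.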

How the values were obtained:
Assay in all cases: DTP human tumour cell line panel, 48 h
LXFL 529 NSCLC = test system: LXFL 529 NSCLC
XF 498 CNS = test system: XF 498 CNS
KM20L2 colon = test system: KM20L2 colon
SNB-78 CNS = test system: SNB-78 CNS
DLD-1 colon = test system: DLD-1 colon
DMS 273 small cell lung = test system: DMS 273 small cell lung
RXF-631 renal = test system: RXF-631 renal
M19-MEL melanoma = test system: M19-MEL melanoma
DMS 114 small cell lung = test system: DMS 114 small cell lung
HOP-18 NSCLC = test system: HOP-18 NSCLC

| Structure (SMILES) | TGI (LXFL 529 NSCLC) | TGI (XF 498 CNS) | TGI (KM20L2 colon) | TGI (SNB-78 CNS) | TGI (DLD-1 colon) | TGI (DMS 273 small cell lung) | TGI (RXF-631 renal) | TGI (M19-MEL melanoma) | TGI (DMS 114 small cell lung) | TGI (HOP-18 NSCLC) | GI50 (LXFL 529 NSCLC) |
| --- | --- | --- | --- | --- | --- | --- | --- | --- | --- | --- | --- |
| COC1=CC(=O)C2[C@H]3Cc4ccccc4[C@H]3C2(C)C1=O (some centres undefined) | > 100 µM | > 100 µM | > 100 µM | > 100 µM | > 100 µM | > 100 µM | > 100 µM | > 100 µM |  |  |  |
| O=C1CSc2ccncc2N1 | > 100 µM | > 100 µM | > 100 µM |  | > 100 µM | > 100 µM |  | > 100 µM | > 100 µM |  |  |
| CC1=NN(c2ccccc2)C(=O)C1C(=O)C(=O)Nc1ccc(C)cc1C (centres undefined) | > 100 µM |  | > 100 µM | > 100 µM | > 100 µM | > 100 µM |  | > 100 µM | > 100 µM | > 100 µM |  |
| N.N.N.N.O=S(=O)([O-])[O-].[Co+3].[OH3+].[OH3+] | > 100 µM |  | > 100 µM | > 100 µM | > 100 µM | > 100 µM |  |  |  |  | > 100 µM |
| CCCN1CN(C(C(=O)N[C@@H]2C(=O)N3C(C(=O)O)=C(C)CSC23)c2ccccc2)CSC1=S (some centres undefined) | > 100 µM |  | > 100 µM | > 100 µM | > 100 µM | > 100 µM |  | > 100 µM |  | > 100 µM |  |
| COc1ccc(C2S/C(=C\c3cccc([N+](=O)[O-])c3)C(=O)N2NC(=O)Cc2ccccc2)cc1 (centres undefined) | > 100 µM |  |  |  | > 100 µM | > 100 µM |  | > 100 µM | > 100 µM | > 100 µM |  |
| Cn1c(C2CC(C)(C)c3c2c2ccccc2n3C)cc2ccccc21 (centres undefined) | > 304 µM | > 304 µM | > 304 µM |  | > 304 µM | > 304 µM |  | > 304 µM | > 304 µM |  |  |
